Assay [1] has as its target T1, human full length PIK3KA H1047R mutant (p110α/p85α complex) (Homo sapiens, UniProt P42336, H1047R).
T1 construct: Recombinant, catalytically active human full length PIK3KA Wild-type and H1047R mutant were purchased as 1:1 complex; 6xHis (N); purchased EMD Millipore Sigma 14-792M
The assay can be described thus: PI3K-alpha kinase (PIK3CA) biochemical activity, H1047R mutant, ADP-Glo. As to conditions: PI3K-α (PIK3CA) biochemical, H1047R mutant, Soy PI lipid substrate. Summed up: (§1)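 Full-length His-p110α/p85α complex, wild-type or H1047R, 1–5 nM, preincubated with compound 1 h at 27 °C in HEPES pH 7.4, 25 mM MgCl2, 0.01% Triton X-100, 1% DMSO. Reaction with 20 μM ATP and 50 μM PIP2diC8 or soy PI at 27 °C to ~10% ATP conversion; ADP-Glo luminescence. IC50 from 10-point four-parameter logistic fit.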
(In general: ADP-Glo first removes unused ATP, then detects ADP through luciferase.)

The subject of assay [2] is PI3K-α (PIK3CA) in MDA-MB-453 cells. The assay can be described thus: PI3K-alpha kinase (PIK3CA) activity in vitro cell based assay, MDA-MB-453 cells, AlphaLisa SureFire. As to conditions: 0% FBS, 3 hours treatment, relative IC50. Here is the method: PI3K-Alpha Kinase (PIK3CA) Activity In Vitro Cell Based Assay and Determining IC50 Values for Inhibitors
The MDA-MB-453 (ATCC-HTB-131) cell line was obtained from the American Type Culture Collection (Manassas, VA). Cells were maintained in Dulbecco's Modified Eagle Media (DMEM, Gibco 11965-092) supplemented with 10% Fetal Bovine Serum, heat inactivated (FBS HI, Gibco 10082-147), 1× non-essential amino acids (NEAA, Gibco 11140-050), and 1 mM sodium pyruvate (Gibco 11360-070). Cultures were maintained in a humidified incubator at 37° C. under 5% CO2/95% air.
For compound testing in 0% FBS, MDA-MB-453 cells were seeded at a density of 1.5×10^4 cells per well in white 384-well plates in 20 μl of Minimum Essential Media (MEM) assay media with 1×NEAA, 1 mM sodium pyruvate, and 1 μg/mL human insulin (Sigma I9278). Compounds dissolved in 10 mM stock solutions in DMSO were serially diluted 1:3 in DMSO to generate a 10-point dilution series and plated using an acoustic liquid handler system (Echo 550 Series Liquid Handler, Labcyte). A 5× intermediate compound dilution plate in MEM with 1×NEAA and 1 mM sodium pyruvate (150 μM starting compound concentration in 1.5% DMSO) was then prepared. Five μl of the intermediate serially diluted compounds were added to the cell plate to final concentrations ranging from […] in 0.3% DMSO. 0.3% DMSO alone was used to establish the maximum (MAX) signal and GDC-0032 at a final concentration of 1 μM was used as a reference compound for the minimum (MIN) signal. After 3 hours treatment, the medium was removed, and the cells lysed in 10 μL of 1× SureFire Lysis buffer with shaking for 10 minutes at room temperature. The Acceptor Mix (Reaction Buffer 1+Reaction Buffer 2+Activation Buffer+SureFire Ultra Acceptor Beads) was prepared by diluting Activation buffer 25-fold in combined Reaction Buffer 1 and Reaction Buffer 2. The Acceptor beads were diluted 50-fold in the combined Reaction Buffers. Five μL of Acceptor Mix was added to each well, the plate was sealed and covered with foil and incubated for 1 hour at room temperature. The Donor Mix (dilution buffer+SureFire Ultra Donor Beads) was prepared by diluting Donor Beads 50-fold in dilution buffer. Five μL of the Donor Mix was added to each well and the plate sealed and covered with foil and incubated for 1 hour at room temperature in the dark. The plates were read on a Neo2 plate reader instrument from Biotek using standard AlphaLisa settings. Compounds were tested in duplicate and the average % inhibition at each compound concentration was used to generate a single dose response curve. The data were processed using the Genedata-Screener tool. Relative IC50 values were determined using luminescence units by calculating percent inhibition with respect to the in-plate “MIN” (GDC-0032 reference control) and “MAX” (DMSO) controls. The data was analyzed using a 4-parameter nonlinear logistic equation (four-parameter logistic concentration-response curve): Y=bottom+[(top−bottom)/1+(X/IC50)slope] where Y=% inhibition, X=concentration of inhibitor, bottom=minimum value of y attained by curve-fit, top=maximum value of y attained by curve-fit and slope=steepness of curve at the IC50. % Inhibition=[(signal at X−median Min)/(median Max−median Min)]×100 IC50: concentration of compound that reduces a given response (ligand binding, enzyme response) by 50%. Relative IC50: concentration giving half the compound's maximum response.
For IC50 values shown in Table B, “A” means IC50<50 nM; “B” means IC50 ranging between 50 nM and 100 nM; “C” means IC50 ranging between 100 nM and 500 nM; “D” means IC50>500 nM.
On the technique in general: Alpha assays give light when donor and acceptor beads are brought close together.

Assay [3] addresses T2, human full length PIK3KA Wild-type (p110α/p85α complex) (Homo sapiens, UniProt P42336).
T2 construct: Recombinant, catalytically active human full length PIK3KA Wild-type and H1047R mutant were purchased as 1:1 complex; 6xHis (N); purchased EMD Millipore Sigma 14-602M
In words: PI3K-alpha kinase (PIK3CA) biochemical activity, wild-type, ADP-Glo. As to conditions: PI3K-α (PIK3CA) biochemical, Soy PI lipid substrate. Summed up:
as §1

Drawing on patent US11873295B2, “Allosteric chromenone inhibitors of phosphoinositide 3-kinase (PI3K) for the treatment of disease” (Petra Pharma Corporation, priority 2021, dated 2024), this text covers IC50 for 10 compounds.

Where only a bound is given, the exact number is not on record here.

A word on the IC50: it is the point on the concentration scale where inhibition reaches its midpoint. A higher IC50 goes with a need for much substance.

T1 sequence (P42336 whole entry H1047R): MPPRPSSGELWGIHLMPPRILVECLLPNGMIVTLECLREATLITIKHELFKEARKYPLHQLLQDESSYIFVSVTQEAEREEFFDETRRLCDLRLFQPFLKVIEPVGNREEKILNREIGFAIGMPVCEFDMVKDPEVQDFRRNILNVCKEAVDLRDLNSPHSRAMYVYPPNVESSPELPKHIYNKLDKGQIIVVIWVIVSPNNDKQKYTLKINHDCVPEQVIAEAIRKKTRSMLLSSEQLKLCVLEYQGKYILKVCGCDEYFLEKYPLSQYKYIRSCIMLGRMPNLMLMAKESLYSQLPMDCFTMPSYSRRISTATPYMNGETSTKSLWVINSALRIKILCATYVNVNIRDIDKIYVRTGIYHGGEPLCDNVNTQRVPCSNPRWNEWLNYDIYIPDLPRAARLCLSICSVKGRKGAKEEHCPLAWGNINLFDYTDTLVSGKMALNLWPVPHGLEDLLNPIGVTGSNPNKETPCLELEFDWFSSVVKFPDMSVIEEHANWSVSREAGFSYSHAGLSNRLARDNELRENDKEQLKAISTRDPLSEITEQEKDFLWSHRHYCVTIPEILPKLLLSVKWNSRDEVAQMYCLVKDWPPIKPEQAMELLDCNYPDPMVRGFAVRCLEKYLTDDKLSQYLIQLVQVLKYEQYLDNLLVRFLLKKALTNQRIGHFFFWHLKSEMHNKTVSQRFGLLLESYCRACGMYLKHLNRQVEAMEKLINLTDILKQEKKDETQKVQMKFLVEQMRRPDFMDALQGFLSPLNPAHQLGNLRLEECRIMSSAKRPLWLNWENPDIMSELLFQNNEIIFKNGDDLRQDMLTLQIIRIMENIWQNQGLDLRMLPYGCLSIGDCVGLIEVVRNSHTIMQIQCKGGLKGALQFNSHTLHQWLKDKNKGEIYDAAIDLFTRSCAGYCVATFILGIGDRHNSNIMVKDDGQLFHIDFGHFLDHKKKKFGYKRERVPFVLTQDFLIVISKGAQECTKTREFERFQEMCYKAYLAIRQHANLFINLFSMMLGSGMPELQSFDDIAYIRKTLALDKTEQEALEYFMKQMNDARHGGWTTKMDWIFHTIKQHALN
T1 sequence (P27986 whole entry partner): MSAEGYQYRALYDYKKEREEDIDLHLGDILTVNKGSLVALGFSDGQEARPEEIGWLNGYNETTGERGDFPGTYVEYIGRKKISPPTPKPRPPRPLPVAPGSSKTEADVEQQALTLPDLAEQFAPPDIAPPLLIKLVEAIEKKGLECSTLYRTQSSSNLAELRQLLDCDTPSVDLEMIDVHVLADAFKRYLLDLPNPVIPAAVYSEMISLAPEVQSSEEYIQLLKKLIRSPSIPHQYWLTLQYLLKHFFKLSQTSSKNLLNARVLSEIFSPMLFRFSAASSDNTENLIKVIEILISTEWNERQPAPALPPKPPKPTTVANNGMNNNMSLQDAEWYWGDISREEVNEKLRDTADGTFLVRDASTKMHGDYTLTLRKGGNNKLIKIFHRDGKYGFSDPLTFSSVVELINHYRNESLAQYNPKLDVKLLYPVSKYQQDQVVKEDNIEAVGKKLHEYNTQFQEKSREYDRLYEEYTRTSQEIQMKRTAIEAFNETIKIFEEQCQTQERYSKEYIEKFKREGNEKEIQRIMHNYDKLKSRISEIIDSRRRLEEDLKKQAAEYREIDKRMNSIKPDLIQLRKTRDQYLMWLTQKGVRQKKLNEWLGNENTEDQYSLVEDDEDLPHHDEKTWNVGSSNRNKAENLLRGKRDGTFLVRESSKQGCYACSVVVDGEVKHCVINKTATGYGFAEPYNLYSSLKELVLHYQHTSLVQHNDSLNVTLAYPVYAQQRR

`Cc1cc([C@@H](C)Nc2ccc(Cl)nc2C(=O)O)c2oc(-c3cccc(C#N)c3)c(C)c(=O)c2c1` [Example 115, 6-Chloro-3-[[(1R)-1-[2-(3-cyanophenyl)-3,6-dimethyl-4-oxo-chromen-8-yl]ethyl]amino]pyridine-2-carboxylic acid 2,2,2-trifluoroacetic acid]: the half-inhibitory concentration (IC50) in assay [1] is less than 500 nM; in assay [2] (Homo sapiens, MDA-MB-453, 3 h), less than 50 nM; in assay [3] it was less than 500 nM.
`Cc1cc([C@@H](C)Nc2ccccc2C(=O)O)c2oc(-c3ccc(F)c(F)c3)c(C)c(=O)c2c1` [Example 78, 2-[[(1R)-1-[2-(3,4-Difluorophenyl)-3,6-dimethyl-4-oxo-chromen-8-yl]ethyl]amino]benzoic acid 2,2,2-trifluoroacetic acid]: the IC50 is less than 500 nM in assay [1]; less than 50 nM in assay [2] (Homo sapiens, MDA-MB-453, 3 h); 1000 to 5000 nM in assay [3].
Consider “2-[[(1R)-1-[3,6-Dimethyl-4-oxo-2-[4-(1H-pyrazol-5-yl)phenyl]chromen-8-yl]ethyl]amino]benzoic acid [Example 169]”, for which the IC50 in assay [1] was less than 500 nM; in assay [2], less than 50 nM; in assay [3], less than 500 nM.
Consider `Cc1cc([C@@H](C)Nc2ccccc2C(=O)O)c2oc(-c3ccc(-c4cnn(C)c4)cc3)c(C)c(=O)c2c1` [Example 164, 2-[[(1R)-1-[3,6-Dimethyl-2-[4-(1-methylpyrazol-4-yl)phenyl]-4-oxo-chromen-8-yl]ethyl]amino]benzoic acid], for which the IC50 in assay [1] was less than 500 nM; in assay [2] (Homo sapiens, MDA-MB-453, 3 h), less than 50 nM; in assay [3], less than 500 nM.
Regarding `Cc1cc([C@@H](C)Nc2ccccc2C(=O)O)c2oc(-c3ccc(-c4cn[nH]c4)cc3)c(C)c(=O)c2c1` [Example 162, 2-[[(1R)-1-[3,6-Dimethyl-4-oxo-2-[4-(1H-pyrazol-4-yl)phenyl]chromen-8-yl]ethyl]amino]benzoic acid], the IC50 in assay [1] is less than 500 nM; in assay [2] (Homo sapiens, MDA-MB-453, 3 h) it was less than 50 nM; in assay [3], 500 to 1000 nM.
The matching figures for `Cc1cc([C@@H](C)Nc2ccc(Cl)cc2C(=O)O)c2oc(-c3cccc(C#N)c3)c(C)c(=O)c2c1` [Example 144, 5-Chloro-2-[[(1R)-1-[2-(3-cyanophenyl)-3,6-dimethyl-4-oxo-chromen-8-yl]ethyl]amino]benzoic acid]: less than 500 nM, less than 50 nM and 500 to 1000 nM.
Consider `COC(=O)c1cccc(-c2oc3c([C@@H](C)Nc4ccccc4C(=O)O)cc(C)cc3c(=O)c2C)c1` [Example 150, 2-[[(1R)-1-[2-(3-Methoxycarbonylphenyl)-3,6-dimethyl-4-oxo-chromen-8-yl]ethyl]amino]benzoic acid], for which the IC50 is less than 500 nM in assay [1]; less than 50 nM in assay [2] (Homo sapiens, MDA-MB-453, 3 h); 1000 to 5000 nM in assay [3].
As to `Cc1cc([C@@H](C)Nc2ccccc2C(=O)O)c2oc(-c3cccc(-c4cc[nH]n4)c3)c(C)c(=O)c2c1` [Example 166, 2-[[(1R)-1-[3,6-Dimethyl-4-oxo-2-[3-(1H-pyrazol-3-yl)phenyl]chromen-8-yl]ethyl]amino]benzoic acid], the IC50 in assay [1] is 500 to 1000 nM; in assay [2] (Homo sapiens, MDA-MB-453, 3 h), less than 50 nM; in assay [3] it was 1000 to 5000 nM.
The matching figures for `Cc1cc([C@@H](C)Nc2ccc(Br)nc2C(=O)O)c2oc(-c3cccc(C#N)c3)c(C)c(=O)c2c1` [Example 141, 6-Bromo-3-[[(1R)-1-[2-(3-cyanophenyl)-3,6-dimethyl-4-oxo-chromen-8-yl]ethyl]amino]pyridine-2-carboxylic acid]: less than 500 nM, less than 50 nM and less than 500 nM.
For the compound `COc1ccc(NC(C)c2cc(C)cc3c(=O)c(C)c(-c4ccccc4)oc23)c(C(=O)O)n1` (single isomer, unassigned; isomer 2) [Example 110, 3-[1-(3,6-Dimethyl-4-oxo-2-phenyl-chromen-8-yl)ethylamino]-6-methoxy-pyridine-2-carboxylic acid, Isomer 2], the IC50 is 1000 to 5000 nM in assay [1], more than 500 nM in assay [2] and 1000 to 5000 nM in assay [3].
